According to patent US9499509B2, “Dihydrochalcone derivatives and their use as antibiotic agents” (UNIVERSITÉ DU QUÉBEC À CHICOUTIMI, priority 2012, dated 2016):
Structures can show the parent of a compound that is named as a salt. Where two headings read alike, the source gives them in different places.

How the values were obtained:
[1] = tested on: methicillin-resistant Staphylococcus aureus (MRSA) strains; test: Antibiotic assay (resazurin, Example 1), MRSA strains; type: cell-based; conditions: Staphylococcus aureus, MRSA
From the text: (§1) Bacteria Strain. […] The MRSA were obtained as further described below.
(§2) Antibiotic agents. Cyprofloxacin and erythromycin were provided by Sigma-Aldrich. Gentamicin sulfate and vancomycin hydrochloride were provided by Calbiochem.
Isolation and identification of methicillin-resistant Staphylococcus aureus (MRSA) strains. From March 2007 to March 2008, 35 screening swabs from nares (n=31), throat (n=3), Groin pus (n=1) were obtained from patients hospitalized at Chicoutimi hospital. Identification of S. aureus was performed using the Slidex Staph-Kit (bioMerieux Vitek, Inc., Hazelwood, Mo.) according to the manufacturer's instructions. Quality control was performed with MRSA strain ATCC 43300 and S. aureus strain ATCC 25923. In addition, S. aureus profile was determined with API Staph test strip with bacterial suspension of saline McFarland of 0.5 (bioMerieux, Durham, N.C.) according to the manufacturer's protocol. API Staph strips were held for 24 h before the results were read. A latex agglutination (SLIDEX) test detecting methicilin resistance in Staphylococci based on the production of low-affinity PBP2a, which is encoded by the mecA gene was performed on all strains. An antibiogram was also performed to confirm the identification of MRSA strains using disk diffusion test.
Antibiotic susceptibility testing using disk diffusion method. The antimicrobial activity of different classes of antibiotics of the potential MRSA was determined by diffusion method (Kirby-Bauer) as described by NCCLS. The antibiotics tested included: penicillin (10 units), amoxicillin/clavulanic acid (20/10 μg), ciprofloxacin (5 μg), moxifloxacin (5 μg), levofloxacin (5 μg), clindamycin (15 μg), erythromycin (15 μg), cefoxitin (30 μg), linezolid (30 μg), trimethoprim/sulfomethoxazole (1.25/23.75 μg), rifampicin (5 μg), gentamicin (10 μg) and vancomycin (30 μg). The agar medium had pH 7.2 to 7.4 before inoculing potentiel MRSA. The antibiotics were maintained at 8° C. or lower −14° C. according to manufacturer's recommendations. The pure culture was inoculated on a non-selective plate for 18-24 h. Each colony was collected with a wire loop and transfered the growth to a tube containing 4 to 5 mL of a tryptic-soy broth. The inoculum density was standarized with BaSO4 using 0.5 McFarland standard. All strains were incubated at 37° C. until it achieves or exceeds the turbidity of 0.5 McFarland standard. Inoculation of the dried surface (Muller-Hinton agar plate) by streaking the swab over the entire sterile agar surface. This procedure was repeated two more times. After 15 min, the appropriate disk were applied on the surface with a sterile forceps. The inverted plates was placed in a incubator at 37° C./air/16 to 18 h or 24 h for vancomycin. The inhibition zones were measured with a millimetric ruler. Interpretation of zone sizes by references of the manufacturer. Quality control organisms used were ATCC strains number 25923.
MRSA. Ten (10) strains of MRSA obtained as described above were tested along with an S. aureus wild type (WT) strain (ATCC25923).

[2] = tested on: S. aureus; test: Antibiotic assay (resazurin, Example 1), S. aureus strains of Table 3; type: cell-based, Staphylococcus aureus; conditions: Staphylococcus aureus
From the text: as §1, §2

[3] = tested on: Streptococcus pneumoniae; test: Antibiotic assay (resazurin, Example 1), Streptococcus pneumoniae; type: cell-based; conditions: for IC50 / MIC: Streptococcus pneumoniae
Protocol: as §1, §2
(§3) Five additional strains were tested: Streptococcus pneumoniae, Streptococcus agalactiae, Streptococcus pyogenes, Enterococcus faecalis and Corynebacterium jeikeium.

[4] = tested on: Enterococcus faecalis; test: Antibiotic assay (resazurin, Example 1), Enterococcus faecalis; type: cell-based; conditions: Enterococcus faecalis
Protocol: as §1, §2, §3

[5] = tested on: Streptococcus pyogenes; test: Antibiotic assay (resazurin, Example 1), Streptococcus pyogenes; type: cell-based; conditions: Streptococcus pyogenes
Protocol: as §1, §2, §3

[6] = tested on: Streptococcus agalactiae; test: Antibiotic assay (resazurin, Example 1), Streptococcus agalactiae; type: cell-based; conditions: Streptococcus agalactiae
Protocol: as §1, §2, §3

[7] = tested on: S. epidermidis; test: Antibiotic assay (resazurin, Example 1), S. epidermidis strains; conditions: Staphylococcus epidermidis
Protocol: The antibiotic assays were performed in 96-well plates (BD Falcon). The bacteria strains were inoculated in Nutrient Broth (BD) for the gram negative bacteria and Tryptic soy broth (BD) with 10% of defibrinated sheep blood (PML microbiological) for gram positive strain. All bacteria strains were dosed by spectrophotometry at 660 nm where 1 D.O=2×10^8 bacteria/mL. All bacteria were plated in their respective broth at a concentration of 450 000 bacteria/mL.
Compounds I, II and III were diluted in methanol and the above-noted antibiotic agents were diluted in water. The solvent concentration was 0.25%, which was not toxic for the bacteria. Compounds I, II and III and the above-noted antibiotic agents were tested at 8 different concentrations.
Each well contained: 100 μL of bacteria, 50 μL of the compounds tested (compound I, II, III or the above-noted antibiotic agent) and 50 μL of a 4% resazurin (Sigma) solution. The plates were incubated at 37° C. for 5 h. The fluorescence was read using a Fluoroskan Ascent™ FL (thermo) using an excitation wavelength of 530 nm and an emission wavelength of 590 nm.
Two different strains of Staphylococcus were tested, namely the S. epidermidis and the S. aureus strains.

CN[C@H](CC(C)C)C(=O)N[C@H]1C(=O)N[C@@H](CC(N)=O)C(=O)N[C@H]2C(=O)N[C@H]3C(=O)N[C@H](C(=O)N[C@H](C(=O)O)c4cc(O)cc(O)c4-c4cc3ccc4O)[C@H](O)c3ccc(c(Cl)c3)Oc3cc2cc(c3O[C@@H]2O[C@H](CO)[C@@H](O)[C@H](O)[C@H]2O[C@H]2C[C@](C)(N)[C@H](O)[C@H](C)O2)Oc2ccc(cc2Cl)[C@H]1O [Vancomycin, vancomycin hydrochloride, reference compound]
IC50 ([1]; MRSA1): 0.08 ± 0.01 µM
IC50 ([1]; MRSA2): 0.08 ± 0.01 µM
IC50 ([1]; MRSA3): 0.064 ± 0.007 µM
IC50 ([1]; MRSA4): 0.069 ± 0.009 µM
IC50 ([1]; MRSA5): 0.062 ± 0.006 µM
IC50 ([1]; MRSA6): 0.08 ± 0.01 µM
IC50 ([1]; MRSA7): 0.08 ± 0.01 µM
IC50 ([1]; MRSA8): 0.08 ± 0.01 µM
IC50 ([1]; MRSA9): 0.08 ± 0.01 µM
IC50 ([1]; MRSA10): 0.059 ± 0.006 µM
MIC ([1]; read-out: Minimum Inhibitory Concentration (MIC), MRSA1): 0.12 µM
MIC ([1]; read-out: Minimum Inhibitory Concentration (MIC), MRSA2): 0.13 µM
MIC ([1]; read-out: Minimum Inhibitory Concentration (MIC), MRSA3): 0.1 µM
MIC ([1]; read-out: Minimum Inhibitory Concentration (MIC), MRSA4): 0.1 µM
MIC ([1]; read-out: Minimum Inhibitory Concentration (MIC), MRSA5): 0.09 µM
MIC ([1]; read-out: Minimum Inhibitory Concentration (MIC), MRSA6): 0.2 µM
MIC ([1]; read-out: Minimum Inhibitory Concentration (MIC), MRSA7): 0.11 µM
MIC ([1]; read-out: Minimum Inhibitory Concentration (MIC), MRSA8): 0.11 µM
MIC ([1]; read-out: Minimum Inhibitory Concentration (MIC), MRSA9): 0.11 µM
MIC ([1]; read-out: Minimum Inhibitory Concentration (MIC), MRSA10): 0.09 µM
IC50 ([2]; S. aureus 14094): 0.28 ± 0.04 µM
IC50 ([2]; S. aureus 14108): 0.27 ± 0.04 µM
IC50 ([2]; S. aureus 14118): 0.24 ± 0.03 µM
IC50 ([2]; S. aureus 14154): 0.28 ± 0.05 µM
MIC ([2]; read-out: Minimum Inhibitory Concentration (MIC), S. aureus 14094): 0.41 µM
MIC ([2]; read-out: Minimum Inhibitory Concentration (MIC), S. aureus 14108): 0.44 µM
MIC ([2]; read-out: Minimum Inhibitory Concentration (MIC), S. aureus 14118): 0.38 µM
MIC ([2]; read-out: Minimum Inhibitory Concentration (MIC), S. aureus 14154): 0.45 µM
IC50 ([3]; Strep. pneumoniae 14070): 0.09 ± 0.04 µM
IC50 ([3]; Strep. pneumoniae 14112): 0.094 ± 0.008 µM
IC50 ([3]; Strep. pneumoniae 14138): 0.13 ± 0.08 µM
IC50 ([3]; Strep. pneumoniae 14144): > 10 µM
IC50 ([3]; Strep. pneumoniae 14148): 0.084 ± 0.006 µM
MIC ([3]; read-out: Minimum Inhibitory Concentration (MIC), Strep. pneumoniae 14070): 8.37 µM
MIC ([3]; read-out: Minimum Inhibitory Concentration (MIC), Strep. pneumoniae 14112): 0.16 µM
MIC ([3]; read-out: Minimum Inhibitory Concentration (MIC), Strep. pneumoniae 14138): > 10 µM
MIC ([3]; read-out: Minimum Inhibitory Concentration (MIC), Strep. pneumoniae 14144): > 10 µM
MIC ([3]; read-out: Minimum Inhibitory Concentration (MIC), Strep. pneumoniae 14148): 0.2 µM
activity against Streptococcus pneumoniae strain 14138 ([3]; in words): had an activity
IC50 ([4]; Ent. Faecalis 14078): 0.7 ± 0.1 µM
IC50 ([4]; Ent. Faecalis 14115): > 10 µM
MIC ([4]; read-out: Minimum Inhibitory Concentration (MIC), Ent. Faecalis 14078): 5.59 µM
MIC ([4]; read-out: Minimum Inhibitory Concentration (MIC), Ent. Faecalis 14115): > 10 µM
IC50 ([5]; Strep. pyogenes 14149): 0.117 ± 0.009 µM
IC50 ([5]; Strep. pyogenes 14152): 0.08 ± 0.02 µM
MIC ([5]; read-out: Minimum Inhibitory Concentration (MIC), Strep. pyogenes 14149): 0.17 µM
MIC ([5]; read-out: Minimum Inhibitory Concentration (MIC), Strep. pyogenes 14152): 3.25 µM
IC50 ([6]; Strep. agalactiae 14150): 0.25 ± 0.06 µM
IC50 ([6]; Strep. agalactiae 14151): 0.33 ± 0.06 µM
IC50 ([6]; Strep. agalactiae 14153): 0.24 ± 0.04 µM
MIC ([6]; read-out: Minimum Inhibitory Concentration (MIC), Strep. agalactiae 14150): 0.35 µM
MIC ([6]; read-out: Minimum Inhibitory Concentration (MIC), Strep. agalactiae 14151): 4.03 µM
MIC ([6]; read-out: Minimum Inhibitory Concentration (MIC), Strep. agalactiae 14153): 0.36 µM
IC50 ([7]; S. epidermidis 14069): 0.8 ± 0.1 µM
IC50 ([7]; S. epidermidis 14085): 0.8 ± 0.1 µM
IC50 ([7]; S. epidermidis 14093): 1.3 ± 0.2 µM
IC50 ([7]; S. epidermidis 14134): 1.7 ± 0.2 µM
IC50 ([7]; S. epidermidis 14143): 2.7 ± 0.1 µM
MIC ([7]; read-out: Minimum Inhibitory Concentration (MIC), S. epidermidis 14069): 6.58 µM
MIC ([7]; read-out: Minimum Inhibitory Concentration (MIC), S. epidermidis 14085): 4 µM
MIC ([7]; read-out: Minimum Inhibitory Concentration (MIC), S. epidermidis 14093): 8.38 µM
MIC ([7]; read-out: Minimum Inhibitory Concentration (MIC), S. epidermidis 14134): 11.4 µM
MIC ([7]; read-out: Minimum Inhibitory Concentration (MIC), S. epidermidis 14143): > 12.5 µM
